Results published in BindingDB's records for PubMed 34355178 (n/a, 2021).

Biological target: T1, Toll-like receptor 7 (Homo sapiens, UniProt Q9NYK1)
T1 sequence (Q9NYK1 whole entry): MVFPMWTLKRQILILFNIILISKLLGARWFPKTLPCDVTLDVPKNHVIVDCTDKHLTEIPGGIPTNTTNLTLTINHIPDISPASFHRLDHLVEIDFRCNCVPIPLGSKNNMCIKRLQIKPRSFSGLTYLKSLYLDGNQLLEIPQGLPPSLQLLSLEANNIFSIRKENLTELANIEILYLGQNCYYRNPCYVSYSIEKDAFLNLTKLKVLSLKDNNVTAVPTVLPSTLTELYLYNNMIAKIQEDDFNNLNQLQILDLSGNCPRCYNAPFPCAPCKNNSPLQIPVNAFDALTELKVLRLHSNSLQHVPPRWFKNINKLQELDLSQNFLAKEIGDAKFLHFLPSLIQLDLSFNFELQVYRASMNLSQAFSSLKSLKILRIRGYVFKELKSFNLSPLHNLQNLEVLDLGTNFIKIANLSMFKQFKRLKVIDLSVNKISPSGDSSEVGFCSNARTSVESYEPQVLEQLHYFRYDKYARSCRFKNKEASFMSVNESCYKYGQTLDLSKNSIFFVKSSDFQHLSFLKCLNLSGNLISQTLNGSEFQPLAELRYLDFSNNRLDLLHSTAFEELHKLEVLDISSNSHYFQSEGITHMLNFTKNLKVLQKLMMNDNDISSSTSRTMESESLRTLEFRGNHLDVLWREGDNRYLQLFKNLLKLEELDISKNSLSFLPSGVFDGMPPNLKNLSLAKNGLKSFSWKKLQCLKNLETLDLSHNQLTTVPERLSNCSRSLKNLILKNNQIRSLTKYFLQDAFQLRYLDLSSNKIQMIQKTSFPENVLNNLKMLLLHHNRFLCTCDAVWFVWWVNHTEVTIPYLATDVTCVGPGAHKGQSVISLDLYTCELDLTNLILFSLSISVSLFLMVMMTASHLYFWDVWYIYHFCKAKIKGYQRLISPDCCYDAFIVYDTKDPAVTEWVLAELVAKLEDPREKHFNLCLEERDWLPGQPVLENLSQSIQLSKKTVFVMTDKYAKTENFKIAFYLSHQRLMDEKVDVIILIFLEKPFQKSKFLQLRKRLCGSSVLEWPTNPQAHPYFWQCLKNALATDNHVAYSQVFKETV
Experiment: Agonist activity at human TLR7 in HEK-Blue hTLR7 cells assessed as activation of NFkappaB by SEAP reporter gene based spectrophotometry assay

| EC50 [µM] | Structure (SMILES) |
| --- | --- |
| 8.11 | CC[C@H](C)c1nc2c(N)nc3ccccc3c2s1 |
| 8.19 | CCCc1nc2c(N)nc3ccc(N)cc3c2s1 |
